pEC50, pIC50: −log10 of the molar value. Read-outs that look alike come from different tables or passages of the source.
What was measured:
[1] = Toxicity against mammalian cells; assay type: cell-based
[2] = test system: undecaprenyl diphosphate synthase (UPPS); conditions: read-out: UPPS IC50; cited from earlier work
S. aureus = S. aureus in vitro; cited from earlier work
MRSA strain (S. aureus) = conditions: cited from earlier work
Bacillus anthracis = conditions: cited from earlier work
Yersinia pestis = conditions: cited from earlier work
[3] = target: undecaprenyl diphosphate synthase (UPPS); assay: UPPS inhibition; assay type: biochemical; conditions: read-out: UPPS IC50; both UPPS enzymes, approximate
E. coli (K12) = assay: E. coli cell growth inhibition; conditions: Escherichia coli, read-out: E. coli EC50, cell growth inhibition, E. coli K12

With `O=C(Nc1cccc(C2=NCCN2)c1)c1ccc(-c2ccc(C(=O)Nc3cccc(C4=NCCN4)c3)cc2)cc1` [Compound 1, N4,N4'-bis(3-(4,5-dihydro-1H-imidazol-2-yl)phenyl)-[1,1'-biphenyl]-4,4'-bicarboxamide] as the compound, how does the pEC50 [1] read?
Its pEC50 is less than 4.00.

And the pIC50 [2]?
Its pIC50 is roughly 7.00.

What about the MIC (S. aureus) of the same compound?
The MIC was ~ 250 ng/mL.

And the adverse side-effects (MRSA strain (S. aureus); S. aureus mouse model of infection)?
Its adverse side-effects is “no adverse side-effects”.

And the mice survived (MRSA strain (S. aureus); i.p. infection model with a MRSA strain)?
The mice survived was 20/20.

With `c1cc2cc(-c3ccc(-c4cc5ccc(C6=NCCN6)cc5[nH]4)cc3)[nH]c2cc1C1=NCCN1` [Compound 7, 1,4-bis(6-(4,5-dihydro-1H-imidazol-2-yl)-1H-indol-2-yl)benzene] as the compound, how does the “efficacy in mice model of infection” value (Bacillus anthracis) read?
Its value is “effective”.

What about the “efficacy in mice model of infection” value (Yersinia pestis) of the same compound?
The value was “effective”.

With `C(=C\c1cc2ccc(C3=NCCN3)cc2[nH]1)/c1cc2ccc(C3=NCCN3)cc2[nH]1.Cl` [Compound 8] as the compound, how does the “efficacy in mice model of infection” value (Bacillus anthracis) read?
The value was “effective”.

What about the “efficacy in mice model of infection” value (Yersinia pestis) of the same compound?
Its value is “effective”.

What does the source list for `O=C(Nc1cccc(C2=NCCCN2)c1)c1ccc(-c2ccc(C(=O)Nc3cccc(C4=NCCCN4)c3)cc2)cc1` [Compound 10, N4,N4'-bis(3-(1,4,5,6-tetrahydropyrimidin-2-yl)phenyl)biphenyl-4,4'-dicarboxamide]?
pIC50 [3]: ~5.30; pEC50 (E. coli (K12)): > 6.00

Source: article PMC4513954 (Journal of medicinal chemistry, 2015)
